Data as given in patent publication US20240002436A1, “RESPIRATORY TREATMENTS” (Hofseth Biocare ASA, priority 2020, published 2024).
Where a SMILES comes first, the peptide text is derived from it. [ ]: non-standard residue; d: D form. The star is where a group is joined. cisHyp = O=C(O)[C@@H]1C[C@H](O)CN1; NMeL = CN[C@@H](CC(C)C)C(=O)O; NMeV = CN[C@H](C(=O)O)C(C)C; Octanoyl = CCCCCCCC(=O)*

Experiments:
[1] = system: CD11b on PMNL surface; assay: CD11b change on PMNL surface stimulated by CCL11 (flow cytometry); assay type: cell-based; details: 30 min pretreatment, 2.5 nm CCL11 30 min at 37° C., CD16 negative cells; for activity at 1 µg/mL: Homo sapiens, PMNL, 0.5 h, 1 μg/mL test compound, assay SD +/-2%, read-out: CD11b change (100% as baseline)
Procedure: CD11b Change (100% as Baseline) on PMNL Surface Stimulated by 2.5 nm CCL11
(PMNL) cells were pretreated with 3 μg/mL ApoA-IV (positive control), 1 μg/mL test compounds, and formulation vehicle (negative control) for 30 minutes and incubated with serial dilutions of CCL 11 for 30 minutes at 37° C. Samples were stained with anti-CD16-PE-Cy5 and anti-CD11b-PE (ICRF44) antibodies. Eosinophils were identified as CD16 negative cells. CD11b upregulation was analyzed by flow cytometry and reported above. (Standard deviation in the assay is +/−2%). See results in Table 2 below.

[2] = system: Allergic Human Purified Peripheral Blood Eosinophils; assay: Percent eosinophil apoptosis (Annexin V-FITC, flow cytometry) in allergic human purified peripheral blood eosinophils; assay type: cell-based; details: IL-5 (50 pM), 18 hr incubation; for viability at 10 µg/mL / Percent apoptotic eosinophils (annexin V-positive) at 10 µg/mL: Homo sapiens, Eosinophil, 10 μg/mL test compound, assay SD +/-2.3%; for viability at 10 µg/mL: read-out: Percent live EO cells; for Percent apoptotic eosinophils (annexin V-positive) at 10 µg/mL: read-out: Percent of apoptotic EO cells
Procedure: Percent Eosinophil Apoptosis in Allergic Human Purified Peripheral Blood Eosinophils
Aliquots were removed after 18 hr incubation, washed twice in PBS, and resuspended in binding buffer. The eosinophil cells were stained using the Annexin V-FITC Apoptosis Detection Kit I, (Sigma Aldrich) and immediately analyzed by flow cytometry. Each sample was acquired for 1 min, and the total number of eosinophils gated on a forward scatter/side scatter plot and the percentage of live cells (annexin Vneg) and apoptotic cells (annexin Vpos) was recorded.

[3] = 3 μg/mL ApoA-IV (positive control)

Molecule | activity at 1 µg/mL [1] [%] | viability at 10 µg/mL ([2]; annexin Vneg) [%] | Percent apoptotic eosinophils (annexin V-positive) at 10 µg/mL ([2]; annexin Vpos) [%] | CD11b change (100% as baseline) [1, 3] [%] | Total percent live and apoptotic EO cells [2, 3] [%] | Percent live EO cells ([2]; 3 μg/mL ApoA-IV (positive control), annexin Vneg) [%] | Percent of apoptotic EO cells ([2]; 3 μg/mL ApoA-IV (positive control), annexin Vpos) [%]
CCCCC(C)CC(C)C(=O)N(C)[C@@H](CC(C)C)C(=O)N[C@H](C(=O)N(C)[C@H](C(=O)N1CCC[C@H]1C(=O)N1C(=O)C=CC1=O)C(C)C)C(C)OC(C)=O (stereo partly drawn) [Compound 12a] | 141 | 52 | 42.1 |  |  |  | 
CCCCCCCC(=O)N(C)[C@H](C(=O)N[C@H](C(=O)N(C)[C@@H](Cc1c[nH]c2ccccc12)C(=O)N1C[C@@H](O)C[C@H]1C(=O)N1C(=O)C=CC1=O)C(C)OC(C)=O)C(C)CC (stereo partly drawn) [Compound 20a] |  | 59.3 | 39.4 |  |  |  | 
CCCCC(C)CC(C)C(=O)N[C@@H](CC(C)C)C(=O)N[C@H](C(=O)N[C@H](C(=O)N1C[C@@H](O)C[C@H]1C(=O)N1C(=O)C=C[C@@H]1C)C(C)C)C(C)OC(C)=O (stereo partly drawn) [Compound 6a] | 141 | 54.5 | 42.8 |  |  |  | 
CC/C=C\C/C=C\C/C=C\C/C=C\C/C=C\CCCC(=O)N(C)[C@@H](Cc1ccccc1)C(=O)N[C@H](C(=O)N(C)[C@H](C(=O)N1CCC[C@H]1C(=O)N1C(=O)C=CC1=O)C(C)C)C(C)O (stereo partly drawn) [Compound 25a] |  | 22.3 | 73.1 |  |  |  | 
CCCCCCCC(=O)N(C)[C@@H](Cc1ccccc1)C(=O)N[C@H](C(=O)N(C)[C@H](C(=O)N1C[C@@H](O)C[C@H]1C(=O)N1C(=O)C=CC1=O)C(C)C)C(C)OC(C)=O (stereo partly drawn) [Compound 18a] |  | 41 | 55.5 |  |  |  | 
CCCCCCCC(=O)N(C)[C@@H](CC(C)C)C(=O)N[C@H](C(=O)N(C)[C@@H](CCSC)C(=O)N1C[C@@H](O)C[C@H]1C(=O)N1C(=O)C=CC1=O)C(C)OC(C)=O (stereo partly drawn) [Compound 19a] |  | 52.7 | 41.8 |  |  |  | 
CCCCC(C)CC(C)C(=O)N(C)[C@@H](CC(C)C)C(=O)N[C@H](C(=O)N(C)[C@H](C(=O)N1C[C@@H](O)C[C@H]1C(=O)N1C(=O)C=C[C@@H]1C)C(C)C)C(C)O (stereo partly drawn) [Compound 8a] | 122 | 31.2 | 60.1 |  |  |  | 
CCCC[C@@H](C)C[C@@H](C)C(=O)N(C)[C@@H](CC(C)C)C(=O)N[C@H](C(=O)N(C)[C@H](C(=O)N1CCC[C@H]1C(=O)N1C(=O)C=C[C@@H]1C)C(C)C)C(C)OC(C)=O (stereo partly drawn) [Compound 3a] | 139 | 51.6 | 43.7 |  |  |  | 
CC(C)C[C@@H](C(=O)N[C@H](C(=O)N(C)[C@H](C(=O)N1C[C@@H](O)C[C@H]1C(=O)N1C(=O)C=C[C@@H]1C)C(C)C)C(C)O)N(C)C(=O)C1CCCCC1 (stereo partly drawn) [Compound 13a] |  | 51.3 | 44 |  |  |  | 
CC/C=C\C/C=C\C/C=C\C/C=C\C/C=C\CCCCCC(=O)N(C)[C@@H](Cc1ccccc1)C(=O)N[C@H](C(=O)N(C)[C@H](C(=O)N1CCC[C@H]1C(=O)N1C(=O)C=CC1=O)C(C)C)C(C)O (stereo partly drawn) [Compound 26a] |  | 30 | 67.3 |  |  |  | 
CC/C=C\C/C=C\C/C=C\C/C=C\C/C=C\CCCC(=O)N(C)[C@@H](CC(C)C)C(=O)N[C@H](C(=O)N(C)[C@H](C(=O)N1C[C@@H](O)C[C@H]1C(=O)N1C(=O)C=CC1=O)C(C)C)C(C)OC(C)=O (stereo partly drawn) [Compound 21a] |  | 38.2 | 58 |  |  |  | 
CCCCCCCC(=O)N(C)[C@@H](CC(C)C)C(=O)N[C@H](C(=O)N(C)[C@H](C(=O)N1C[C@@H](O)C[C@H]1C(=O)N1C(=O)C=C[C@@H]1C)C(C)C)C(C)OC(C)=O (stereo partly drawn) [Compound 5a] | 129 | 42.9 | 53.1 |  |  |  | 
CCCCC(C)CC(C)C(=O)N(C)CC(=O)N[C@H](C(=O)N(C)CC(=O)N1C[C@@H](O)C[C@H]1C(=O)N1C(=O)C=C[C@@H]1C)C(C)OC(C)=O (stereo partly drawn) [Compound 7a] | 149 | 59.4 | 39.9 |  |  |  | 
CC/C=C\C/C=C\C/C=C\C/C=C\C/C=C\CCCC(=O)N(C)[C@@H](Cc1ccccc1)C(=O)N[C@H](C(=O)N(C)[C@H](C(=O)N1CCC[C@H]1C(=O)N1C(=O)C=CC1=O)C(C)C)C(C)OC(C)=O (stereo partly drawn) [Compound 24a] |  | 33.8 | 64.9 |  |  |  | 
CCCCC(C)CC(C)C(=O)N(C)[C@@H](CC(C)C)C(=O)N[C@@H](CS)C(=O)N(C)[C@H](C(=O)N1CCC[C@H]1C(=O)N1C(=O)C=C[C@@H]1C)C(C)C (stereo partly drawn) [Compound 11a] | 135 | 49.7 | 44.4 |  |  |  | 
CC/C=C\C/C=C\C/C=C\C/C=C\C/C=C\CCCC(=O)N(C)[C@@H](CC(C)C)C(=O)N[C@H](C(=O)N(C)[C@H](C(=O)N1C[C@@H](O)C[C@H]1C(=O)N1C(=O)C=CC1=O)C(C)C)C(C)O (stereo partly drawn) [Compound 22a] |  | 28.1 | 68.7 |  |  |  | 
CC/C=C\C/C=C\C/C=C\C/C=C\C/C=C\CCCC(=O)N(C)[C@@H](CC(C)C)C(=O)N[C@H](C(=O)N(C)[C@H](C(=O)N1C[C@@H](O)C[C@H]1C(=O)N1C(=O)C=C[C@@H]1C)C(C)C)C(C)OC(C)=O (stereo partly drawn) [Compound 27a] |  | 39.1 | 56.5 |  |  |  | 
CCCCC(C)CC(C)C(=O)N(C)[C@@H](CC(C)C)C(=O)N[C@@H](COC(C)=O)C(=O)N(C)[C@H](C(=O)N1C[C@@H](O)C[C@H]1C(=O)N1C(=O)C=C[C@@H]1C)C(C)C (stereo partly drawn) [Compound 9a] | 127 | 39.6 | 56.4 |  |  |  | 
CCCC[C@@H](C)C[C@@H](C)C(=O)N(C)[C@@H](CC(C)C)C(=O)N[C@H](C(=O)N(C)[C@H](C(=O)N1C[C@@H](O)C[C@H]1C(=O)N1C(=O)C=C[C@@H]1C)C(C)C)C(C)OC(C)=O (stereo partly drawn) [Compound 1a] | 129 | 42.5 | 53.2 |  |  |  | 
CCCCC(C)CC(C)C(=O)N(C)[C@@H](CC(C)C)C(=O)N[C@H](C(=O)N(C)[C@H](C(=O)N1C[C@@H](O)C[C@H]1C(=O)N1C(=O)C=C[C@@H]1C)C(C)C)C(C)OC(C)=O (stereo partly drawn) [Compound 1b] | 128 | 41.8 | 55 |  |  |  | 
CCCCCCCC(=O)N(C)[C@@H](CC(C)C)C(=O)N[C@@H](COC(C)=O)C(=O)N(C)[C@H](C(=O)N1C[C@@H](O)C[C@H]1C(=O)OC)C(C)C [Compound 17a] (Octanoyl-[NMeL]S(Ac)[NMeV][cisHyp]-OMe) |  | 53.5 | 48.2 |  |  |  | 
CC/C=C\C/C=C\C/C=C\C/C=C\C/C=C\CCCC(=O)N(C)[C@@H](CC(C)C)C(=O)N[C@H](C(=O)N(C)[C@H](C(=O)N1C[C@@H](O)C[C@H]1C(=O)N1C(=O)C=C[C@@H]1C)C(C)C)C(C)O (stereo partly drawn) [Compound 14a] |  | 26.6 | 67.1 |  |  |  | 
CC/C=C\C/C=C\C/C=C\C/C=C\C/C=C\CCCC(=O)N(C)[C@@H](Cc1ccccc1)C(=O)N[C@H](C(=O)N(C)[C@H](C(=O)N1C[C@@H](O)C[C@H]1C(=O)N1C(=O)C=CC1=O)C(C)C)C(C)OC(C)=O (stereo partly drawn) [Compound 23a] |  | 31.4 | 65.6 |  |  |  | 
ApoA-IV: positive control in the eosinophil apoptosis and CD11b assays, used at 3 μg/mL (protein, UniProt P06727 21-396, looked up) Apolipoprotein A-IV: EVSADQVATVMWDYFSQLSNNAKEAVEHLQKSELTQQLNALFQDKLGEVNTYAGDLQKKLVPFATELHERLAKDSEKLKEEIGKELEELRARLLPHANEVSQKIGDNLRELQQRLEPYADQLRTQVSTQAEQLRRQLTPYAQRMERVLRENADSLQASLRPHADELKAKIDQNVEELKGRLTPYADEFKVKIDQTVEELRRSLAPYAQDTQEKLNHQLEGLTFQMKKNAEELKARISASAEELRQRLAPLAEDVRGNLRGNTEGLQKSLAELGGHLDQQVEEFRRRVEPYGENFNKALVQQMEQLRQKLGPHAGDVEGHLSFLEKDLRDKVNSFFSTFKEKESQDKTLSLPELEQQQEQQQEQQQEQVQMLAPLES |  |  |  | 121 | 92.4 | 29.3 | 63.1
